What was measured:
Assay type in all cases: binding
Settings in all cases: Compound Concentration 10 µM
panel of 442 kinases [1] = molecular target: T1, panel of 442 kinases (Homo sapiens, UniProt Q08345)
T1 construct: purchased KINOMEscan
From the text: (§1) We assessed the selectivity of members of this scaffold using the KINOMEscan methodology across a near comprehensive panel of 442 kinases [[18,27]].

panel of 442 kinases [2] = molecular target: T2, panel of 442 kinases (Homo sapiens, UniProt P29322)
T2 construct: purchased KINOMEscan
T2 sequence (P29322 28-1005): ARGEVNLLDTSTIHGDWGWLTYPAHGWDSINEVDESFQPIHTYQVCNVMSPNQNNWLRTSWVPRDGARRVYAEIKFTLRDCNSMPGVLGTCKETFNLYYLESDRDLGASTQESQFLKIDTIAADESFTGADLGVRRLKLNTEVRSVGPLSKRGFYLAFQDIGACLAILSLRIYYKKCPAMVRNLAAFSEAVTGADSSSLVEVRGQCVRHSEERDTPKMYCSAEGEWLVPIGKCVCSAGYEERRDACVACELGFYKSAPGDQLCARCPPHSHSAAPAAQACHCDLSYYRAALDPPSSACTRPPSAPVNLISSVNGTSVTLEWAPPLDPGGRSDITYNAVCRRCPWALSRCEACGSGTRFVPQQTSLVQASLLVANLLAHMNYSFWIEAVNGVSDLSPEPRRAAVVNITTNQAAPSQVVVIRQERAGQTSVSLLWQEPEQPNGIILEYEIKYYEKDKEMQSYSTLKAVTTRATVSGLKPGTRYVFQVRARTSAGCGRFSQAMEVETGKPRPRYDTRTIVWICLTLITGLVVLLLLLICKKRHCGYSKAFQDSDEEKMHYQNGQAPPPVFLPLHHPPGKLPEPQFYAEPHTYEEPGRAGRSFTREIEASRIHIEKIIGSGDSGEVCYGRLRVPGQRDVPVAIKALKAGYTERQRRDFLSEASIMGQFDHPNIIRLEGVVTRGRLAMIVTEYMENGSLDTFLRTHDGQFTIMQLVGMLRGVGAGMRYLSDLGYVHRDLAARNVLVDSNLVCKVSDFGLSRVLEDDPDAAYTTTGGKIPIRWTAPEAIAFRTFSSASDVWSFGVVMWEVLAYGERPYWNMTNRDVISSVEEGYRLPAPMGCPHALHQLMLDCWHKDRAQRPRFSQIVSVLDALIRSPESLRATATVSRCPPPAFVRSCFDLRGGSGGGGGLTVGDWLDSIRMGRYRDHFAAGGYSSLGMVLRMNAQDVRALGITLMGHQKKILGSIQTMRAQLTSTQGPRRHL
From the text: as §1

panel of 442 kinases [3] = molecular target: T3, panel of 442 kinases (Homo sapiens, UniProt P53667)
T3 construct: purchased KINOMEscan
From the text: as §1

T1 sequence (Q08345 19-913): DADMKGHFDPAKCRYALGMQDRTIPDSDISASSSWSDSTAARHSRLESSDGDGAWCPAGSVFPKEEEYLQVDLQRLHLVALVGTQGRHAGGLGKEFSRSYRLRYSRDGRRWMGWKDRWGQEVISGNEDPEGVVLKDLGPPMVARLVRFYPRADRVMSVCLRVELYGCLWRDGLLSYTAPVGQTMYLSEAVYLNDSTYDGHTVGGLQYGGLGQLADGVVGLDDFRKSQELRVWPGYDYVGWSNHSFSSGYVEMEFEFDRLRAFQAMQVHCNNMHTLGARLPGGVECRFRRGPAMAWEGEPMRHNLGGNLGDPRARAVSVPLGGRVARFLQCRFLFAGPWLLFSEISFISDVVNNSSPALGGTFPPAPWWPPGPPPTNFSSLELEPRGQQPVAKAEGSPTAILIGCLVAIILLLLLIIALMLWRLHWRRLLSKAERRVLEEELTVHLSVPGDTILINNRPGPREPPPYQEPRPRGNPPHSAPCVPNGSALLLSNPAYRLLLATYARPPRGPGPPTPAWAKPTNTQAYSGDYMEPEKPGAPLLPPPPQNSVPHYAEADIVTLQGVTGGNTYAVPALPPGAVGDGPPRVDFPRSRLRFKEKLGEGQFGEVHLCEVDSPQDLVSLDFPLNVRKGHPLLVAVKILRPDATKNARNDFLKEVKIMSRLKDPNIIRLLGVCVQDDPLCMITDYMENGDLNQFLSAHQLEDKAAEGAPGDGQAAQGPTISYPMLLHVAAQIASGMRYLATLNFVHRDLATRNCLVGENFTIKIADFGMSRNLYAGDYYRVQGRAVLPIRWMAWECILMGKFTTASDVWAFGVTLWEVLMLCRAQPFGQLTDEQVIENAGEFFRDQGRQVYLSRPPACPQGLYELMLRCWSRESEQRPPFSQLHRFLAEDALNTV
T3 sequence (P53667 whole entry): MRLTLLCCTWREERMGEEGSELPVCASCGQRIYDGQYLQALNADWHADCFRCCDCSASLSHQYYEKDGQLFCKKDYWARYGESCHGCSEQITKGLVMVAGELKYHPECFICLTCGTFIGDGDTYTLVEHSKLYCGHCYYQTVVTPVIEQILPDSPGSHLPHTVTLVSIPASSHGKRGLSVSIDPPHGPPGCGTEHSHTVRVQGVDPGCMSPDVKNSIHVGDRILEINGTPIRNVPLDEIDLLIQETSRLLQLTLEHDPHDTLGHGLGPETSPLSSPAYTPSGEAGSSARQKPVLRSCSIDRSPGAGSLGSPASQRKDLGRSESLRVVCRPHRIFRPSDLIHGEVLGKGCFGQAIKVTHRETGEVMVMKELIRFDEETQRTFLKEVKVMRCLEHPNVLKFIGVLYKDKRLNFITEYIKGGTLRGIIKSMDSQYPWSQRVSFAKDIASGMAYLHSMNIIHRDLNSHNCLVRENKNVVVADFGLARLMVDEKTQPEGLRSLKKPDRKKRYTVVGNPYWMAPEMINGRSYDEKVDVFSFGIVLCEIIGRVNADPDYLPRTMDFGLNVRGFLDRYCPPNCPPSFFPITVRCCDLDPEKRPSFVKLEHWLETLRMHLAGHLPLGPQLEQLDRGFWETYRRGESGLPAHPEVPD

SMILES | KINOMEscan: DDR1 (panel of 442 kinases [1]) | KINOMEscan: EPHA8 (panel of 442 kinases [2]) | KINOMEscan: LIMK1 (panel of 442 kinases [3])
COc1cc(C(=O)N2CCC(N3CCN(C)CC3)CC2)ccc1Nc1ncc2c(n1)N1CCc3cccc(c31)C(=O)N2C [Compound 24] | 67 | 72 | 
CCOc1cc(C(=O)N2CCC(N3CCN(C)CC3)CC2)ccc1Nc1ncc2c(n1)N(C1CCCC1)c1ccccc1C(=O)N2C [Compound 26] | 100 | 100 | 100
COc1cc(C(=O)N2CCC(N3CCN(C)CC3)CC2)ccc1Nc1ncc2c(n1)N(C1CCCC1)c1ccccc1C(=O)N2C [Compound 25, 11-cyclopentyl-2-((2-methoxy-4-(4-(4-methylpiperazin-1-yl)piperidine-1-carbonyl)phenyl)amino)-5-methyl-5H-benzo[e]pyrimido[5,4-b][1,4]diazepin-6(11H)-one] | 98 | 97 | 93
COc1cc(C(=O)N2CCC(N3CCN(C)CC3)CC2)ccc1Nc1ncc2c(n1)N(C)c1ccccc1C(=O)N2C [15 (LRRK2-IN-1)] | 100 | 80 | 95

From publication PMC3914206
